According to article PMC12655351, “Synthesis and Anticancer Activity Evaluation of New 5-((5-Nitrofuran-2-yl)allylidene)-2-thioxo-4-thiazolidinones” (Pharmaceuticals, 2025):

Columns and labels:
786-0 = conditions: 786-0, 48 h
CAKI-1 = assay: cells; conditions: Homo sapiens, CAKI-1, 48 h
OVCAR-8 = assay: cells; conditions: Homo sapiens, OVCAR-8, 48 h; for CC50: read-out: LC50, OVCAR-8, 48 h
MDA-MB-231/ATCC = conditions: 48 h
MDA-MB-468 = assay: NCI-60 SRB screen; conditions: MDA-MB-468, 48 h; for GI50 / CC50: Homo sapiens; for CC50: read-out: LC50, MDA-MB-468, 48 h
A549/ATCC = assay: NCI-60 SRB screen; conditions: for TGI: 48 h; for GI50: Homo sapiens, A549, 48 h
IGROV1 = assay: NCI-60 SRB screen; conditions: for GI50 / CC50: Homo sapiens, IGROV-1, 48 h; for GI50 / TGI: IGROV1, 48 h; for CC50: read-out: LC50, IGROV1, 48 h
KM12 = assay: NCI-60 SRB screen; conditions: KM12, 48 h; for GI50: Homo sapiens
COLO 205 = conditions: COLO 205, 48 h
UO-31 [1] = assay: cells; conditions: Homo sapiens, UO-31, 48 h; for CC50: read-out: LC50, UO-31, 48 h
MDA-MB-435 = conditions: MDA-MB-435, 48 h
MOLT-4 [2] = conditions: MOLT-4, 48 h
Ovarian cancer = assay: cells; conditions: Homo sapiens; for GI50: read-out: MG_MID GI50; for CC50: read-out: MG_MID LC50
SF-295 = assay: NCI-60 SRB screen; conditions: SF-295, 48 h; for GI50 / CC50: Homo sapiens; for CC50: read-out: LC50, SF-295, 48 h
SK-OV-3 = conditions: SK-OV-3, 48 h
HOP-92 = assay: NCI-60 SRB screen; conditions: HOP-92, 48 h; for GI50 / CC50: Homo sapiens; for CC50: read-out: LC50, HOP-92, 48 h
[3] = test system: Non-small cell lung cancer; conditions: Non-small cell lung cancer subpanel
PC-3 = assay: cells; conditions: Homo sapiens, PC-3, 48 h
TK-10 = assay: cells; conditions: Homo sapiens, TK-10, 48 h; for CC50: read-out: LC50, TK-10, 48 h
OVCAR-4 = assay: cells; conditions: Homo sapiens, OVCAR-4, 48 h; for CC50: read-out: LC50, OVCAR-4, 48 h
DU-145 = assay: cells; conditions: Homo sapiens, DU-145, 48 h; for CC50: read-out: LC50, DU-145, 48 h
NCI/ADR-RES = assay: cells; conditions: Homo sapiens, 48 h; for CC50: read-out: LC50, NCI/ADR-RES, 48 h
SW-620 = assay: NCI-60 SRB screen; conditions: SW-620, 48 h; for GI50: Homo sapiens
HL-60(TB) = assay: NCI-60 SRB screen; conditions: for TGI / GI50: HL-60(TB), 48 h; for GI50 / CC50: Homo sapiens, HL-60, 48 h; for CC50: read-out: LC50, HL-60(TB), 48 h
HT29 = conditions: HT29, 48 h
A498 = assay: cells; conditions: Homo sapiens, A498, 48 h
UO-31 [4] = conditions: UO-31, 48 h
HCT-116 [5] = conditions: HCT-116, 48 h
SF-268 = conditions: SF-268, 48 h
RPMI-8226 = conditions: RPMI-8226, 48 h
SR = conditions: 48 h
[6] = test system: panel of 60 cancer cell lines; assay: cells; conditions: Homo sapiens, read-out: MG_MID GI50
OVCAR-5 = assay: NCI-60 SRB screen; conditions: OVCAR-5, 48 h; for GI50: Homo sapiens
Melanoma = assay: cells; conditions: Homo sapiens; for GI50: read-out: MG_MID GI50; for CC50: read-out: MG_MID LC50
M14 = assay: NCI-60 SRB screen; conditions: M14, 48 h; for GI50 / CC50: Homo sapiens; for CC50: read-out: LC50, M14, 48 h
MOLT-4 [7] = assay: cells; conditions: Homo sapiens, MOLT-4, 48 h; for CC50: read-out: LC50, MOLT-4, 48 h
LOX IMVI = assay: cells; conditions: Homo sapiens, 48 h; for CC50: read-out: LC50, LOX IMVI, 48 h
HCT-116 [8] = assay: cells; conditions: Homo sapiens, HCT-116, 48 h
Prostate Cancer = Prostate Cancer subpanel
OVCAR-3 = assay: cells; conditions: Homo sapiens, OVCAR-3, 48 h

In the case of `CCCCC(C(=O)O)N1C(=O)/C(=C/C=C/c2ccc([N+](=O)[O-])o2)SC1=S` (stereo not shown) [6b, 2-((Z)-5-((E)-3-(5-nitrofuran-2-yl)allylidene)-4-oxo-2-thioxothiazolidin-3-yl)hexanoic acid], the TGI (786-0) is reported as 9.30 µM, the GI50 (CAKI-1) is reported as 1.67 µM and the GI50 (OVCAR-8) is reported as 2.12 µM. For the same compound, the CC50 (OVCAR-8) was 13.8 µM, the TGI (MDA-MB-231/ATCC) was 4.45 µM and the GI50 (MDA-MB-468) was 1.63 µM. It also gave a CC50 (MDA-MB-468) of 6.09 µM, a TGI (MDA-MB-468) of 3.15 µM and a TGI (A549/ATCC) of 5.86 µM. For the same compound, the GI50 (A549/ATCC) was 2.33 µM, the GI50 (IGROV1) was 2.16 µM and the CC50 (IGROV1) was 18 µM. For the same compound, the TGI (IGROV1) was 4.86 µM, the GI50 (KM12) was 1.63 µM and the TGI (KM12) was 3.24 µM. The TGI (COLO 205) was 3.66 µM, the GI50 (UO-31 [1]) was 1.67 µM and the CC50 (UO-31 [1]) was 6.5 µM. For the same compound, the TGI (MDA-MB-435) was 3.95 µM, the TGI (MOLT-4 [2]) was 13.5 µM and the GI50 (Ovarian cancer) was 3.32 µM. For the same compound, the CC50 (Ovarian cancer) was 25.7 µM, the GI50 (SF-295) was 2.23 µM and the CC50 (SF-295) was 13.5 µM. For the same compound, the TGI (SF-295) was 4.99 µM, the TGI (SK-OV-3) was 19.4 µM and the TGI (HOP-92) was 9.85 µM. For the same compound, the GI50 (HOP-92) was 3.57 µM, the CC50 (HOP-92) was 42.2 µM and the “MG_MID TGI” value [3] was 6.45 µM. For the same compound, the GI50 (PC-3) was 3.05 µM, the GI50 (TK-10) was 3.13 µM and the CC50 (TK-10) was 28.3 µM. It also gave a GI50 (OVCAR-4) of 6.12 µM, a CC50 (OVCAR-4) of 44.5 µM and a GI50 (DU-145) of 3.35 µM. It also gave a CC50 (DU-145) of 32.9 µM, a GI50 (NCI/ADR-RES) of 2.24 µM and a CC50 (NCI/ADR-RES) of 29.3 µM. For the same compound, the GI50 (SW-620) was 1.8 µM, the TGI (SW-620) was 3.38 µM and the TGI (HL-60(TB)) was 10.1 µM. For the same compound, the GI50 (HL-60(TB)) was 2.68 µM, the CC50 (HL-60(TB)) was > 100 µM and the TGI (HT29) was 3.71 µM. It also gave a GI50 (A498) of 3.03 µM, a TGI (UO-31 [4]) of 3.29 µM and a TGI (HCT-116 [5]) of 4.05 µM. The TGI (SF-268) was 5.24 µM, the TGI (RPMI-8226) was 6.09 µM and the TGI (SR) was 8.66 µM. For the same compound, the GI50 [6] was 2.3 µM, the GI50 (OVCAR-5) was 2.08 µM and the TGI (OVCAR-5) was 4.62 µM. For the same compound, the GI50 (Melanoma) was 1.78 µM, the CC50 (Melanoma) was 7.07 µM and the GI50 (M14) was 1.83 µM. The CC50 (M14) was 7.66 µM, the TGI (M14) was 3.75 µM and the GI50 (MOLT-4 [7]) was 3.28 µM. The CC50 (MOLT-4 [7]) was 90.2 µM, the GI50 (LOX IMVI) was 1.76 µM and the CC50 (LOX IMVI) was 6.37 µM. For the same compound, the GI50 (HCT-116 [8]) was 1.73 µM, the “MG_MID TGI” value (Prostate Cancer) was 10.8 µM and the GI50 (OVCAR-3) was 2.23 µM.
`O=C(O)C(c1ccccc1)N1C(=O)/C(=C/C=C/c2ccc([N+](=O)[O-])o2)SC1=S` (stereo not shown) [9b, 2-((Z)-5-((E)-3-(5-Nitrofuran-2-yl)allylidene)-4-oxo-2-thioxothiazolidin-3-yl)-2-phenylacetic acid] showed a TGI (786-0) of 12.8 µM, a GI50 (CAKI-1) of 6.27 µM and a GI50 (OVCAR-8) of 11.1 µM. The CC50 (OVCAR-8) was 58.5 µM, the TGI (MDA-MB-231/ATCC) was 24.2 µM and the GI50 (MDA-MB-468) was 2.74 µM. It also gave a CC50 (MDA-MB-468) of 45.6 µM, a TGI (MDA-MB-468) of 10.4 µM and a TGI (A549/ATCC) of 47.0 µM. The GI50 (A549/ATCC) was 16.8 µM, the GI50 (IGROV1) was 14.3 µM and the CC50 (IGROV1) was 66.6 µM. The TGI (IGROV1) was 30.8 µM, the GI50 (KM12) was 6.66 µM and the TGI (KM12) was 20.6 µM. It also gave a TGI (COLO 205) of 22.2 µM, a GI50 (UO-31 [1]) of 10.8 µM and a CC50 (UO-31 [1]) of 50.7 µM. The TGI (MDA-MB-435) was 13.0 µM, the TGI (MOLT-4 [2]) was 39.9 µM and the GI50 (Ovarian cancer) was 13 µM. For the same compound, the CC50 (Ovarian cancer) was 60.3 µM, the GI50 (SF-295) was 17.4 µM and the CC50 (SF-295) was 58.4 µM. The TGI (SF-295) was 31.9 µM, the TGI (SK-OV-3) was 29.9 µM and the TGI (HOP-92) was 27.5 µM. The GI50 (HOP-92) was 13.4 µM, the CC50 (HOP-92) was 56.2 µM and the “MG_MID TGI” value [3] was 31.8 µM. For the same compound, the GI50 (PC-3) was 13.5 µM, the GI50 (TK-10) was 16.1 µM and the CC50 (TK-10) was 55.9 µM. The GI50 (OVCAR-4) was 13.9 µM, the CC50 (OVCAR-4) was 56.1 µM and the GI50 (DU-145) was 11.5 µM. It also gave a CC50 (DU-145) of 48.8 µM, a GI50 (NCI/ADR-RES) of 13.5 µM and a CC50 (NCI/ADR-RES) of 84.9 µM. It also gave a GI50 (SW-620) of 2.94 µM, a TGI (SW-620) of 9.66 µM and a TGI (HL-60(TB)) of 42.2 µM. The GI50 (HL-60(TB)) was 14.8 µM, the CC50 (HL-60(TB)) was > 100 µM and the TGI (HT29) was 22.4 µM. It also gave a GI50 (A498) of 20.8 µM, a TGI (UO-31 [4]) of 23.4 µM and a TGI (HCT-116 [5]) of 8.14 µM. For the same compound, the TGI (SF-268) was 23.7 µM, the TGI (RPMI-8226) was 12.7 µM and the TGI (SR) was 18.0 µM. It also gave a GI50 [6] of 9.03 µM, a GI50 (OVCAR-5) of 12.7 µM and a TGI (OVCAR-5) of 25.8 µM. The GI50 (Melanoma) was 7.49 µM, the CC50 (Melanoma) was 48.9 µM and the GI50 (M14) was 12.6 µM. For the same compound, the CC50 (M14) was 58 µM, the TGI (M14) was 27.0 µM and the GI50 (MOLT-4 [7]) was 12.1 µM. The CC50 (MOLT-4 [7]) was > 100 µM, the GI50 (LOX IMVI) was 10.8 µM and the CC50 (LOX IMVI) was 62.3 µM. For the same compound, the GI50 (HCT-116 [8]) was 2.68 µM, the CC50 (HCT-116 [8]; read-out: LC50, HCT-116, 48 h) was > 100 µM and the “MG_MID TGI” value (Prostate Cancer) was 26.8 µM. For the same compound, the GI50 (OVCAR-3) was 9.26 µM.
